In patent US7705040B2, “Reagents for highly specific detection of peroxynitrite” (The University of Hong Kong, priority 2005, dated 2010):

Columns and labels:
[1] = Specificity of probe with different reactive oxygen species: fluorescence change with singlet oxygen; settings: ss-6 20 μM, phosphate buffer pH 7.4; 3-(1,4-dihydro-1,4-epidioxy-1-napthyl)propionic acid at 37° C. (50 μL, 20 mM)
Experimental: (§1) Compound ss-6 obtained in Example 1 was dissolved in CH3CN to a concentration of 2 mM, and then the solution was added a 100 mM sodium phosphate buffer (pH 7.4) for dissolution to a final concentration of 20 μM. The excitation spectrum and the fluorescence spectrum of the 20 μM ss-6 solution were measured using a Perkin Elmer LS50 fluorescence spectrometer. Slit width was 5 nm for both the excitation spectrum and the fluorescence spectrum, and the photomultiplier voltage was 775 V. The measurement was carried out at the excitation wavelength of 515 nm.
(§2) Compound ss-6 obtained in Example 1 was dissolved in CH3CN to a concentration of 2 mM, and then the solution was added with a 100 mM sodium phosphate buffer (pH 7.4) for dissolution at a final concentration of 20 μM. […] The changes in fluorescence intensity before and after the treatment were measured. The fluorescence intensity was measured under the same conditions as those in Example 2. Each concentration of the fluorescence probe was 20 μM (a 100 mM sodium phosphate buffer, pH 7.4).
(§3) Compound ss-12 obtained in Example 5 was dissolved in CH3CN to a concentration of 2 mM, and then the solution was added with a 100 mM sodium phosphate buffer (pH 7.4) for dissolution at a final concentration of 20 μM. […] The changes in fluorescence intensity before and after the treatment were measured. […]

[2] = Specificity of probe with different reactive oxygen species: fluorescence change with hydroxyl radical; settings: ss-6 20 μM, phosphate buffer pH 7.4; Fe(ClO4)2 (25 μL, 40 mM) and H2O2 (25 μL, 80 mM)
Experimental: as §1
(§4) Compound ss-6 obtained in Example 1 was dissolved in CH3CN to a concentration of 2 mM, and then the solution was added with a 100 mM sodium phosphate buffer (pH 7.4) for dissolution at a final concentration of 20 μM. 50 μL of different reactive oxygen species (10 equiv) were added independently to 5 mL of the corresponding ss-6 solution. The changes in fluorescence intensity before and after the treatment were measured. The fluorescence intensity was measured under the same conditions as those in Example 2. Each concentration of the fluorescence probe was 20 μM (a 100 mM sodium phosphate buffer, pH 7.4).

[3] = Fluorescence spectrum after reaction of probe with 15 equiv ONOO−; settings: ss-6 20 μM, 30 min, room temperature, excitation 515 nm, FIG. 9 vs FIG. 8
Experimental: as §1, with “nm. […]” for “nm.”
Subsequently, 15 equiv of ONOO^− solution with different concentration was slowly added to a 20 μM ss-6 solution with vigorous stirring at room temperature. […] The changes in fluorescence intensity were measured after 30 min. The excitation spectrum and the fluorescence spectrum of the solution after the completion of the reaction were measured using the same conditions as described above.
Compound ss-12 obtained in Example 5 was dissolved in CH3CN to a concentration of 2 mM, and then the solution was added a 100 mM sodium phosphate buffer (pH 7.4) for dissolution at a final concentration of 20 μM. The excitation spectrum and the fluorescence spectrum of the 20 μM ss-12 solution were measured using a Perkin Elmer® LS50 fluorescence spectrometer. […]

[4] = Specificity of probe with different reactive oxygen species: fluorescence change with H2O2; settings: ss-6 20 μM, phosphate buffer pH 7.4; 10 equiv
Experimental: as §1, §2, §3

[5] = Specificity of probe with different reactive oxygen species: fluorescence change with superoxide; settings: ss-6 20 μM, phosphate buffer pH 7.4; Xanthine Oxidase then Xanthine (50 μL, 20 mM)
Experimental: as §1, §2, §3

[6] = tested on: primary cultured cortex neurons; test: Cell assay: fluorescent microscopy of intracellular ONOO− production after SIN-1; assay type: cell-based, Sprague-Dawley rats; settings: probe 20 μM for 15 mins, then 10 and 100 μM SIN-1 for 15 mins; fluorescent microscopy (FIG. 24)
Experimental: Throughout this study, primary cultured cortex neurons were prepared from embryonic day 15 Sprague-Dawley rats. Briefly, dissociated cell suspensions were plated at a density of 2×10^6 cells/well on poly-L-lysine-coated 6-well plates (BD Biosciences, San Diego, Calif., USA) with Neurobasal/2% B27 (Gibco-BRL, Grand Island, N.Y.) containing glutamine (0.5 mM, Sigma Chemical Company, St. Louis, Mo.), penicillin (100 U/mL) and streptomycin (100 μg/mL). The cells were maintained in a humidified incubator at 37° C., in 5% CO2-95% air. On the tenth day, cultured cortical cells were used for experimentation. The primary cultured neuronal cells were incubated with the ss-6 and ss-12 at the concentration of 20 μM for 15 mins and then washed with sodium phosphate buffer (100 mM, pH 7.4) for 3 times. After that, the cells were treated with 10 and 100 μM SIN-1 (3-Morpholino-sydnonimine-HCl) for 15 mins. After washed with sodium phosphate buffer (100 mM, pH 7.4), the cells were observed under fluorescent microscopy.

[7] = Specificity of probe with different reactive oxygen species: fluorescence change with SIN-1; settings: ss-6 20 μM, 100 mM sodium phosphate buffer pH 7.4; 10 equiv; SIN-1 generates ONOO− slowly in buffer
Experimental: as §1, §4

[8] = Specific detection of peroxynitrite: fluorescence versus ONOO− concentration; settings: probe 20 μM, pH 7.4, after 30 mins
Experimental: (§5) Compound ss-6 obtained in Example 1 was dissolved in CH3CN to a concentration of 2 mM, and then the solution was added with a 100 mM sodium phosphate buffer (pH 7.4) for dissolution at a final concentration of 20 μM. Then peroxynitrite was added to final concentrations of 0, 20, 60, 100, 200, 240 and 300 μM, and the fluorescence spectrum was measured after 30 mins. The fluorescence spectrum was measured under the same conditions as those in Example 2.
as §5, with “Compound ss-12” for “Compound ss-6”, “Example 5” for “Example 1”, “Example 6.” for “Example 2.”

[9] = Specificity of probe with different reactive oxygen species: fluorescence change with ONOO−
Experimental: as §1, with “nm. […]” for “nm.”
as §2, §3

N,N-diethyl-8-[2-methoxy-(4,4,4-trifluoro-3-oxobutyl)phenyl]-4,4-difluoro-4-bora-3a,4a-diaza-s-indacene-3,5-dicarboxamide [ss-6]
changes in fluorescence intensity before and after the treatment, 1O2 [1]: 3% | changes in fluorescence intensity before and after the treatment, •OH [2]: 2% | change in fluorescence intensity after reaction with ONOO− [3]: Dramatic increase | changes in fluorescence intensity before and after the treatment, H2O2 [4]: −5% | changes in fluorescence intensity before and after the treatment, O2•− [5]: −1% | measurement of intracellular ONOO− production [6]: satisfactory results | changes in fluorescence intensity before and after the treatment, SIN-1 [7]: 166% | increase in fluorescence intensity with peroxynitrite ([8]; peroxynitrite 0, 20, 60, 100, 200, 240 and 300 μM): great increase | relationship of fluorescence intensity with the concentration of ONOO− ([8]; peroxynitrite 0-300 μM): good linear relationship | selectivity for peroxynitrite over other reactive oxygen species ([9]; probe 20 μM, phosphate buffer pH 7.4, conclusion from Tables 1 and 2): very high selectivity | changes in fluorescence intensity before and after the treatment, ONOO^− ([9]; ss-6 20 μM, 100 mM sodium phosphate buffer pH 7.4, 10 equiv ROS, excitation 515 nm): 750%
